Read-outs that look alike come from different tables or passages of the source.
Experiments:
[1] = test system: T47D_NF1KD; experiment: growth inhibition, 3 days; type: cell-based
Procedure: (§1) MCF7 cells cultured in phenol red-free RPMI1640 medium containing 10% charcoal stripped FBS were transfected with NF1 siRNA to a final concentration of […] using Lipofectamine RNAiMAX. The cells were then incubated for 1 day at 37° C., 5% CO2. After that, E2 (estrogen) was added to the medium at 1 nmol/L final concentration, and the cells were cultured for 3 days, after which the cells were collected and cell extracts were prepared.
(§2) To investigate the growth inhibition effect of Compound (1) on the NF1-depleted ER+/HER2− breast cancer cells, MCF7 and T47D, the serially diluted Compound (1) was exposed to the cells for 3 days as in the previous experiment.
(§3) The growth inhibition curve in MCF7 and T47D cells were obtained and the half maximal inhibitory concentration (IC50) value of growth inhibition were calculated as shown in Table 1.

[2] = test system: MCF7_NF1KD; experiment: growth inhibition, 3 days; type: cell-based; details: Homo sapiens
Procedure: as §1, §2, §3

[3] = test system: MCF7; experiment: growth inhibition, 3 days; type: cell-based; details: Homo sapiens, MCF7, NF1 WT
Procedure: as §1, §2, §3

[4] = test system: T47D; experiment: growth inhibition, 3 days; type: cell-based; details: Homo sapiens, NF1 WT
Procedure: as §1, §2, §3

[5] = test system: cancer cell lines derived from various human cancer origins; experiment: cell growth inhibition assay, cell panel, CellTiter Glo 2.0; type: cell-based; details: 72 hour, FIG. 4A
Procedure: Cell growth inhibition assay was conducted according to 72 hour-standard protocol by CellTiter Glo 2.0 Assay.

[6] = test system: T47D cells (control and NF1 knockdown); experiment: immunoblotting of target inhibition and apoptosis induction; type: cell-based
Procedure: (§4) To investigate the mechanism of action of Compound (1) in inhibiting the growth of NF1 knockdown breast cancer cells, Compound (1), trametinib, Alpelisib, and fulvestrant were exposed to NF1-knockdown MCF7 and T47D cells at indicated final concentration for 24 hours. NF1, pPRAS40 Thr246, pYB1 Ser102, pS6RP Ser235/236, ERα, and cleaved PARP were detected by immunoblotting.

[7] = test system: PTEN-mutated MFE-319 cells; experiment: dose-dependent apoptosis induction; type: cell-based, human; details: MFE-319, 48 hour, compared to control
[8] = test system: LS180 human colorectal tumor xenografts; experiment: antitumor effect in mice with LS180 xenograft tumors; type: in vivo; details: 80 mg/kg/day
Procedure: The oncogenic KRAS mutations are diverse, including not only G12C but also G12X and G13X in the mutation hotspot Glycine at […]. To determine whether Compound (1), which targets downstream of MAPK and PI3K signaling, is effective against G12D mutated cancers, an efficacy experiment of Compound (1) was conducted using subcutaneously transplanted LS180 tumor derived from colorectal cancers with KRAS G12D and PIK3CA and PTEN gene alterations.
Evaluation was conducted by comparing the efficacy of 80 mg/kg/day of Compound (1) with that of 1 mg/kg/day MEK inhibitor trametinib used as a reference group.

[9] = test system: LU65 human lung tumor xenografts; experiment: antitumor effect in mice with LU65 xenograft tumors
Procedure: The tumor volumes and body weights of animals were recorded.

[10] = test system: ER+/HER2− breast cancer cell lines; experiment: immunoblotting, combination with fulvestrant, presence and absence of estrogen and NF1; type: cell-based; details: single agent; presence or absence of estrogen; NF1 wildtype and NF1 knockdown cells
Procedure: The actual standard of care for ER+/HER2− breast cancer uses the adjuvant therapies such as tamoxifen, letrozole, or fulvestrant. Patients with recurrent or refractory tumors are treated with additional use of CDK4/6 inhibitors or Alpelisib for PIK3CA-mutated cancers.

[11] = test system: MeWo; experiment: growth inhibition assay, NF1 mutant cell line; type: cell-based; details: Homo sapiens, melanoma, NF1 p.Q1336*
Source text: (§5) In order to investigate the growth inhibitory effect of Compound (1) in NF1 mutant cancer cell lines, the IC50 values of growth inhibition assay were obtained and compared then in Table 2.
(§6) In this experiment, to compare the growth inhibitory effect of Compound (1) with those of MAPK and PI3K signaling inhibitors, the IC50 values of trametinib (as a MEK inhibitor), and Alpelisib (as a PI3K inhibitor) were obtained and compared.

[12] = test system: MDA-MB-231; experiment: growth inhibition assay, NF1 mutant cell line; type: cell-based; details: Homo sapiens; MDA-MB-231, TN breast, NF1 p.T467Hfs*3
Source text: as §5, §6

[13] = test system: H1838; experiment: growth inhibition assay, NF1 mutant cell line; type: cell-based; details: Homo sapiens, NCI-H1838; H1838, lung, NF1 p.N184Qfs*17
Source text: as §5, §6

[14] = test system: MDA-MB-175VII; experiment: growth inhibition assay, NF1 mutant cell line; type: cell-based; details: Homo sapiens, ER+ breast, NF1 p.1679Dfs*21
Source text: as §5, §6

[15] = test system: HCT116; experiment: growth inhibition assay, NF1 mutant cell line; type: cell-based; details: Homo sapiens, HCT-116; HCT116, colon, NF1 p.P678Rfs*10, p.P388T
Source text: as §5, §6

[16] = test system: BT483; experiment: growth inhibition assay, NF1 mutant cell line; type: cell-based; details: Homo sapiens, BT-483; BT483, ER+ breast, NF1 p.R1204W
Source text: as §5, §6

[17] = test system: RKO; experiment: growth inhibition assay, NF1 mutant cell line; type: cell-based; details: Homo sapiens, colon
Source text: as §5, §6

[18] = test system: HCC202; experiment: growth inhibition assay, NF1 mutant cell line; type: cell-based; details: HCC202, HER2+ breast, NF1 p.X465_splice
Source text: as §5, §6

[19] = test system: SW1573 human lung tumor xenografts; details: for T/C ratio (%): Day 15; for Number of deaths / Tumor volume (mm^3) Day 15 Mean ± SE: qd Day 1-14, po
[20] = test system: MCF7 cells (control and NF1 knockdown); experiment: immunoblotting of target inhibition and apoptosis induction; type: cell-based, human
Procedure: as §4

[21] = with estrogen, read-out: IC50 (nmol/L) E2 (+)
[22] = without estrogen, read-out: IC50 (nmol/L) E2 (−)

CC(C)(C)NCCNc1ccc(-c2nnc(C(F)(F)F)o2)nc1C1CCN(c2ncnc3c2C(C)(C)C(=O)N3)CC1 [Compound (1), 4-(4-(3-((2-(tert-butylamino)ethyl)amino)-6-(5-(trifluoromethyl)-1,3,4-oxadiazol-2-yl)pyridin-2-yl)piperidin-1-yl)-5,5-dimethyl-5H-pyrolo[2,3-d]pyrimidin-6(7H)-one]
IC50 [1, 21]: 37 nmol/L
IC50 [1, 22]: 111 nmol/L
IC50 [2, 21]: 188 nmol/L
IC50 [2, 22]: 294 nmol/L
IC50 [3, 21]: 108 nmol/L
IC50 [3, 22]: 89 nmol/L
IC50 [4, 21]: 65 nmol/L
IC50 [4, 22]: 125 nmol/L
growth inhibition in cancer cell panel [5]: potent growth inhibition
apoptosis induction (cleaved PARP signal) ([6]; T47D NF1 knockdown cells versus control cells): remarkably higher level in NF1 knockdown cells than control cells
signals of pPRAS40, pYB1, and pS6RP (target inhibition) ([6]; T47D, control and NF1 knockdown, 24 hours, immunoblot): decreased the signals of pPRAS40, pYB1, and pS6RP in a concentration-dependent manner
levels of cleaved caspase-3 and cleaved PARP [7]: increased cleaved caspase-3 and cleaved PARP in a concentration dependent manner
Number of deaths [8]: 0
T/C ratio (%) ([8]; Day 15): 59%
Tumor volume (mm^3) Day 15 Mean ± SE ([8]; qd Day 1-14, po): 867.8 ± 210.6 mm^3
Number of deaths ([9]; 80 mg/kg/day): 0
T/C ratio (%) ([9]; 80 mg/kg/day, Day 13): 75%
Tumor volume (mm^3) Day 13 Mean ± SE ([9]; 80 mg/kg/day, qd, po): 1724.3 ± 91.1 mm^3
tolerability (body weight changes) ([9]; throughout the study period): well tolerated
apoptosis induction [10]: observed
IC50 [11]: 844 nM
IC50 [12]: 2810 nM
IC50 [13]: 344 nM
IC50 [14]: 70 nM
IC50 [15]: 355 nM
IC50 [16]: 128 nM
IC50 [17]: 118 nM
IC50 [18]: 157 nM
T/C ratio (%) ([19]; 30 mg/kg/day): 55%
Number of deaths ([19]; 30 mg/kg/day): 0
Tumor volume (mm^3) Day 15 Mean ± SE ([19]; 30 mg/kg/day): 438.6 ± 81.1 mm^3
T/C ratio (%) ([19]; 60 mg/kg/day): 38%
Number of deaths ([19]; 60 mg/kg/day): 0
Tumor volume (mm^3) Day 15 Mean ± SE ([19]; 60 mg/kg/day): 305.6 ± 33.0 mm^3
signals of pPRAS40, pYB1, and pS6RP (target inhibition) ([20]; MCF7, control and NF1 knockdown, 24 hours, immunoblot): decreased the signals of pPRAS40, pYB1, and pS6RP in a concentration-dependent manner
apoptosis induction (cleaved PARP signal) ([20]; MCF7 NF1 knockdown cells versus control cells): did not exhibit the attenuation of apoptosis induction
apoptosis induction (cleaved PARP signal) ([20]; MCF7 control cells (non-targeting siRNA), single agent): induced apoptosis

From patent publication US20240408100A1, “TREATMENT METHODS FOR SUBJECTS HAVING CANCER WITH A DYSREGULATED MAPK AND/OR PI3K PATHWAY” (TAIHO PHARMACEUTICAL CO., LTD., priority 2021, published 2024)
